Format in all cases: cell-based
The subject of assay [1] is DU-145 human prostate carcinoma cells. The assay can be described thus: MTS cell viability assay, DU-145 human prostate carcinoma cells. Conditions: DU-145, 4 h compound incubation, MTS, read-out: IC50 Values, Cancerous Cells, Prostate DU-145.
In assay [2] the test system is NCM-460 normal colon epithelial cells. The experiment in a line: MTS cell viability assay, NCM-460 normal colon epithelial cells. Particulars: for IC50: Homo sapiens, NCM460, NCM-460, 4 h compound incubation, MTS, read-out: IC50 Values, Normal Cells, Colon NCM-460; for Fold Selectivity (NCM-460/DLD1): ratio of IC50 NCM-460 / DLD1. A general note: Tetrazolium assays rely on reduction of a dye to a coloured formazan, in cell work by metabolically active cells.

Assay [3] concerns DLD-1 human colon carcinoma cells. The experiment in a line: MTS cell viability assay, DLD-1 human colon carcinoma cells. Conditions: DLD-1, 4 h compound incubation, MTS, read-out: IC50 Values, Cancerous Cells, Colon DLD-1.
The subject of assay [4] is PACA-2 human pancreatic carcinoma cells. The assay can be described thus: MTS cell viability assay, PACA-2 human pancreatic carcinoma cells. Particulars: PACA-2, 4 h compound incubation, MTS, read-out: IC50 Values, Cancerous Cells, Pancreas PACA-2.
Assay [5] concerns K-562 human leukemia cells. The experiment in a line: MTS cell viability assay, K-562 human leukemia cells. Particulars: K562, K-562, 4 h compound incubation, MTS, read-out: IC50 Values, Cancerous Cells, Leukemia K-562.
For assay [6], the system named is A549 human lung carcinoma cells. The assay can be described thus: MTS cell viability assay, A549 human lung carcinoma cells. Particulars: A549, 4 h compound incubation, MTS, read-out: IC50 Values, Cancerous Cells, Lung A549.

The values below come from patent US7902354B2, “Lapachone compounds and methods of use thereof” (ArQule, Inc., priority 2006, dated 2011).

Where only a bound is given, the exact number is not on record here.

The IC50 is the concentration that inhibits the measured activity by half. Consider `O=C1C(=O)c2ccccc2C2=C1SCC1(CCN(CCOc3ccc(Cl)cc3)CC1)O2` [Compound 145, 1′-[2-(4-chlorophenoxy)ethyl]spiro[naphtho[1,2-b][1,4]oxathiine-2,4′-piperidine]-5,6-dione], for which the IC50 in assay [1] was found to be 4.03 µM; in assay [2], 21 µM; in assay [3], 3.8 µM; in assay [4], 2.74 µM; in assay [5] it was 7.87 µM; in assay [6], 5.55 µM. In assay [2], the “Fold Selectivity (NCM-460/DLD1)” value turned out to be 5.5.

For the molecule `O=C1C(=O)c2ccccc2C2=C1SCC1(CCN(CC(O)COCc3ccco3)CC1)O2` (centres unmarked) [Compound 165, 1′-[3-(2-furylmethoxy)-2-hydroxypropyl]spiro[naphtho[2-b][1,4]oxathiine-2,4′-piperidine]-5,6-dione], the half-inhibitory concentration (IC50) in assay [1] turned out to be 3.08 µM; in assay [2] it was 4.71 µM; in assay [3], 1.92 µM; in assay [4], 1.44 µM; in assay [5], 2.31 µM; in assay [6], 6.73 µM. Besides, the “Fold Selectivity (NCM-460/DLD1)” value in assay [2] came to 2.5.

As to `O=C1C(=O)c2ccccc2C2=C1SCC1(CCN(Cc3ccccc3)CC1)O2` [Compound 130, 1′-benzylspiro[naphtho[1,2-b][1,4]oxathiine-2,4′-piperidine]-5,6-dione], the IC50 was found to be 4.58 µM in assay [1]; 10.2 µM in assay [2]; 1.57 µM in assay [3]; 2.74 µM in assay [4]; 3.84 µM in assay [5]; 7.4 µM in assay [6]. Also, in assay [2], the “Fold Selectivity (NCM-460/DLD1)” value was 6.5.

For `C=COC(=O)N1CCC2(CC1)CSC1=C(O2)c2ccccc2C(=O)C1=O` [Compound 94, vinyl 5,6-dioxo-5,6-dihydro-1′H-spiro[naphtho[1,2-b][1,4]oxathiine-2,4′-piperidine]-1′-carboxylate], the IC50 in assay [1] was found to be 3.69 µM; in assay [2] it was 9.48 µM; in assay [3], 2.41 µM; in assay [4] it was 2.81 µM; in assay [5], 2.49 µM; in assay [6] it was 8.52 µM. For the same molecule, the “Fold Selectivity (NCM-460/DLD1)” value in assay [2] is 3.9.

Turning to `O=C1C(=O)c2ccccc2C2=C1SCC1(CCN(C(=O)Nc3ccc(Cl)c(Cl)c3)CC1)O2` [Compound 87, N-(3,4-dichlorophenyl)-5,6-dioxo-5,6-dihydro-1′H-spiro[naphtho[1,2-b][1,4]oxathiine-2,4′-piperidine]-1′-carboxamide], the IC50 in assay [1] was 0.888 µM; in assay [2], 30.5 µM; in assay [3], 3.04 µM; in assay [4], 1.34 µM; in assay [5], 3.11 µM; in assay [6], 3.31 µM. For the same molecule, the “Fold Selectivity (NCM-460/DLD1)” value in assay [2] is 10.0.

Turning to `Cc1nn(C)c(C)c1S(=O)(=O)N1CCC2(CC1)CSC1=C(O2)c2ccccc2C(=O)C1=O` [Compound 80, 1′-[(1,3,5-trimethyl-1H-pyrazol-4-yl)sulfonyl]spiro[naphtho[1,2-b][1,4]oxathiine-2,4′-piperidine]-5,6-dione], the IC50 amounted to 4.25 µM in assay [1]; 12.9 µM in assay [2]; 3.53 µM in assay [3]; 3.35 µM in assay [4]; 3.81 µM in assay [5]; 18.3 µM in assay [6]. The “Fold Selectivity (NCM-460/DLD1)” value in assay [2] is 3.7.

With `O=C1C(=O)c2ccccc2C2=C1SCC1(CCN(CC(O)COc3ccccc3Cl)CC1)O2` (centres unmarked) [Compound 172, 1′-[3-(2-chlorophenoxy)-2-hydroxypropyl]spiro[naphtho[1,2-b][1,4]oxathiine-2,4′-piperidine]-5,6-dione], the 50% inhibitory concentration (IC50) in assay [1] amounted to 1.55 µM; in assay [2], 5.53 µM; in assay [3] it was 1.36 µM; in assay [4], 1.09 µM; in assay [5], 1.48 µM; in assay [6], 6.16 µM. Also, the “Fold Selectivity (NCM-460/DLD1)” value in assay [2] is reported as 4.1.

As to `CC(c1ccccc1)N1CCC2(CC1)CSC1=C(O2)c2ccccc2C(=O)C1=O` (centres unmarked) [Compound 137, 1′-(1-phenylethyl)spiro[naphtho[12-b][1,4]oxathiine-2,4′-piperidine]-5,6-dione], the IC50 in assay [1] was found to be 4.32 µM; in assay [2] it was 10 µM; in assay [3], 4.08 µM; in assay [4], 4.12 µM; in assay [5], 4.25 µM; in assay [6], 8.27 µM. Moreover, in assay [2], the “Fold Selectivity (NCM-460/DLD1)” value is given as 2.5.

`O=C1C(=O)c2ccccc2C2=C1SCC1(CCN(CC(O)COCc3ccccc3)CC1)O2` (centres unmarked) [Compound 171, 1′-[3-(benzyloxy)-2-hydroxypropyl]spiro[naphtho[12-b][1,4]oxathiine-2,4′-piperidine]-5,6-dione]: the IC50 came to 3.22 µM in assay [1]; 9.69 µM in assay [2]; 1.34 µM in assay [3]; 1.46 µM in assay [4]; 3.6 µM in assay [5]; 6.55 µM in assay [6]. Further, the “Fold Selectivity (NCM-460/DLD1)” value in assay [2] was 7.2.

With `O=C1C(=O)c2ccccc2C2=C1SCC1(CCN(C(=O)c3cnccc3C(=O)O)CC1)O2` [Compound 237, 3-[(5,6-dioxo-5,6-dihydro-1′H-spiro[naphtho[1,2-b][1,4]oxathiine-2,4′-piperidin]-1′-yl)carbonyl]isonicotinic acid], the 50% inhibitory concentration (IC50) in assay [1] was 61.3 µM; in assay [2], 94.2 µM; in assay [3], 66.1 µM; in assay [4], 48 µM; in assay [5] it was 49.3 µM; in assay [6], over 100 µM. Besides, the “Fold Selectivity (NCM-460/DLD1)” value in assay [2] was 1.4.

With `O=C1C(=O)c2ccccc2C2=C1SCC1(CCN(C(=O)c3cccnc3)CC1)O2` [Compound 59, 1′-(pyridin-3-ylcarbonyl)spiro[naphtho[1,2-b][1,4]oxathiine-2,4′-piperidine]-5,6-dione], the IC50 turned out to be 10.4 µM in assay [1]; 10.7 µM in assay [2]; 4.1 µM in assay [3]; 4.24 µM in assay [4]; 4.24 µM in assay [5]; 16.8 µM in assay [6]. The “Fold Selectivity (NCM-460/DLD1)” value in assay [2] was determined as 2.6.

`COC(=O)C(=O)N1CCC2(CC1)CSC1=C(O2)c2ccccc2C(=O)C1=O` [Compound 52, methyl (5,6-dioxo-5,6-dihydro-1′H-spiro[naphtho[1,2-b][1,4]oxathiine-2,4′-piperidine]-1′-yl)(oxo)acetate]: the IC50 was found to be 4.49 µM in assay [1]; 10.1 µM in assay [2]; 4.15 µM in assay [3]; 3.92 µM in assay [4]; 2.71 µM in assay [5]; 14.4 µM in assay [6]. In addition, the “Fold Selectivity (NCM-460/DLD1)” value in assay [2] was 2.4.

On to `Cc1cccc(C(=O)N2CCC3(CC2)CSC2=C(O3)c3ccccc3C(=O)C2=O)c1` [Compound 60, 1′-(3-methylbenzoyl)spiro[naphtho[1,2-b][1,4]oxathiine-2,4′-piperidine]-5,6-dione], for which the concentration for half-maximal inhibition (IC50) came out at 4.16 µM in assay [1]; 10.5 µM in assay [2]; 2.21 µM in assay [3]; 2.39 µM in assay [4]; 3.38 µM in assay [5]; 8.59 µM in assay [6]. Moreover, the “Fold Selectivity (NCM-460/DLD1)” value in assay [2] came to 4.8.

`O=C1C(=O)c2ccccc2C2=C1SCC1(CCN(CC(O)CC(F)(F)F)CC1)O2` (centres unmarked) [Compound 160, 1′-(4,4,4-trifluoro-2-hydroxybutyl)spiro[naphtho[1,2-b][1,4]oxathiine-2,4′-piperidine]-5,6-dione]: the IC50 amounted to 3.92 µM in assay [1]; 5.56 µM in assay [2]; 1.69 µM in assay [3]; 1.55 µM in assay [4]; 1.53 µM in assay [5]; 6.72 µM in assay [6]. Besides, the “Fold Selectivity (NCM-460/DLD1)” value in assay [2] amounted to 3.3.

In the case of `O=C1C(=O)c2ccccc2C2=C1SCC1(CCN(C(=O)c3cc4ccccc4s3)CC1)O2` [Compound 51, 1′-(1-benzothien-2-ylcarbonyl)spiro[naphtho[1,2-b][1,4]oxathiine-2,4′-piperidine]-5,6-dione], the IC50 in assay [1] was 5.52 µM; in assay [2] it was 33 µM; in assay [3] it was 11.6 µM; in assay [4] it was 4.28 µM; in assay [5] it was 10.3 µM; in assay [6], over 100 µM. Moreover, the “Fold Selectivity (NCM-460/DLD1)” value in assay [2] is reported as 2.8.

Regarding `O=C1C(=O)c2ccccc2C2=C1SCC1(CCN(S(=O)(=O)c3ccc(Cl)c(Cl)c3)CC1)O2` [Compound 76, 1′-[(3,4-dichlorophenyl)sulfonyl]spiro[naphtho[1,2-b][1,4]oxathiine-2,4′-piperidine]-5,6-dione], the IC50 is 28 µM in assay [1]; 100 µM in assay [2]; 27.1 µM in assay [3]; 14.3 µM in assay [4]; over 33.3 µM in assay [5]; over 100 µM in assay [6]. In addition, the “Fold Selectivity (NCM-460/DLD1)” value in assay [2] amounted to 3.7.

`O=C1C(=O)c2ccccc2C2=C1SCC1(CCN(CC(O)COc3ccc(Cl)cc3)CC1)O2` (centres unmarked) [Compound 176, 1′-[3-(4-chlorophenoxy)-2-hydroxypropyl]spiro[naphtho[1,2-b][1,4]oxathiine-2,4′-piperidine]-5,6-dione]: the IC50 in assay [1] was 2.43 µM; in assay [2], 11 µM; in assay [3], 2.4 µM; in assay [4], 3 µM; in assay [5] it was 4.76 µM; in assay [6] it was 5.14 µM. In assay [2], the “Fold Selectivity (NCM-460/DLD1)” value amounted to 4.6.
